Values quoted from earlier work in patent US12590297B2, “Differentiation method” (Koninklijke Nederlandse Akademie Van Wetenschappen, priority 2016, dated 2026).

Experiments:
[1] = molecular target: T1, glucocorticoid receptor (Homo sapiens, UniProt P04150); details: in comparison to cortisol; oral dosing; cited from earlier work
T1 sequence (P04150 1-777): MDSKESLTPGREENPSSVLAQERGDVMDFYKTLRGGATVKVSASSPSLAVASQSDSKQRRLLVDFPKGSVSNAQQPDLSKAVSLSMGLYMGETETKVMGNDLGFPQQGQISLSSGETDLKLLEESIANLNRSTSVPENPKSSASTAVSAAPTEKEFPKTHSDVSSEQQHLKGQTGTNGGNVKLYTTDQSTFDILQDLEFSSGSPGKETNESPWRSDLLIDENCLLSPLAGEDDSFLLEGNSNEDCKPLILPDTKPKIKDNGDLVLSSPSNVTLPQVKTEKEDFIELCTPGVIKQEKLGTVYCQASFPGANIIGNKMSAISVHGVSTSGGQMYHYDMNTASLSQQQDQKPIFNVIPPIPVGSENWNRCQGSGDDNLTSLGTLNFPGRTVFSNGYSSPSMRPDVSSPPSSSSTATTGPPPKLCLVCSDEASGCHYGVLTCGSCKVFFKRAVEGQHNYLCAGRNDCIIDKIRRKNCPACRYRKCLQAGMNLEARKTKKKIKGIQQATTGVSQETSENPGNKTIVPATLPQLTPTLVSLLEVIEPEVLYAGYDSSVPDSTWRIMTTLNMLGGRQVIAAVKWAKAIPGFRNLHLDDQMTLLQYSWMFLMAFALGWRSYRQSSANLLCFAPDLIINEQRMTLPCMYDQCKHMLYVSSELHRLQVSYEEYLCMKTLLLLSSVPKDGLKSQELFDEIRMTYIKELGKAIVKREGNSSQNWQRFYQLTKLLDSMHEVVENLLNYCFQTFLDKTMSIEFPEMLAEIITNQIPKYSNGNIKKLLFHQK

[2] = molecular target: T2, ALK5 (TGF-βR1) (Homo sapiens, UniProt P36897); details: high concentrations; p38 MAP kinase inhibitor; cited from earlier work
T2 sequence (P36897 34-503): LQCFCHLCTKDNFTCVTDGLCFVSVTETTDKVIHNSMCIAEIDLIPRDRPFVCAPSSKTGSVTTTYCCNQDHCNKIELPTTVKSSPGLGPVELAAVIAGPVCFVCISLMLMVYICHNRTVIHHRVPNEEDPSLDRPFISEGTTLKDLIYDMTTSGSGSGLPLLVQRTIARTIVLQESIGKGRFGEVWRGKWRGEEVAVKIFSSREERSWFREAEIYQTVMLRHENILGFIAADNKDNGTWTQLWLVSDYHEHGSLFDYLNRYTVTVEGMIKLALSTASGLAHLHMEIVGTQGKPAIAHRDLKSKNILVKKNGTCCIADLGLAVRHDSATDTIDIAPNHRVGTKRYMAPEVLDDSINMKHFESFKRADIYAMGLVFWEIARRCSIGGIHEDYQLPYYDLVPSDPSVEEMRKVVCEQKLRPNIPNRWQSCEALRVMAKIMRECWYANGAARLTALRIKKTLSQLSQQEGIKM

Compound | Glucocorticoid potency [1] | concentration at which thought to inhibit ALK5 [2]
C[C@]12C=CC(=O)C=C1CC[C@@H]1[C@@H]2[C@@H](O)C[C@@]2(C)[C@H]1CC[C@]2(O)C(=O)CO [Prednisolone] | 4 | 
C[C@]12CCC(=O)C=C1CC[C@@H]1[C@@H]2C(=O)C[C@@]2(C)[C@H]1CC[C@]2(O)C(=O)CO [Cortisone] | 0.8 | 
C[S+]([O-])c1ccc(-c2nc(-c3ccc(F)cc3)c(-c3ccncc3)[nH]2)cc1 (centres unmarked) [SB-203580] |  | ≥ 10 µM
C[C@]12C=CC(=O)C=C1CC[C@H]1[C@@H]3C[C@@H](O)[C@](O)(C(=O)CO)[C@@]3(C)C[C@H](O)[C@@]12F [Triamcinolone] | 5 | 
C[C@]12CCC(=O)C=C1CC[C@@H]1[C@@H]2[C@@H](O)C[C@@]2(C)[C@H]1CC[C@]2(O)C(=O)CO [Cortisol (hydrocortisone), Cortisol] | 1 | 
